Reference: patent US20040171823A1, “Polynucleotides and polypeptides associated with the NF-kappaB pathway” (priority 2003, published 2004)

Test system: NF-κB activation pathway
Experiment: Real-time PCR (TaqMan/SYBR Green) of target gene mRNA in LPS-stimulated THP-1 cells with NF-κB pathway inhibitors
Type: cell-based, human
Conditions: BMS-345541 10 μM, dexamethasone 100 nM; for MGC20791 expression (mRNA): all time points examined, FIG. 5D; for BCL-6 expression (mRNA): FIG. 5C
Procedure: Poly (A)^+ mRNA was isolated from THP-1 cells that were either unstimulated, or stimulated with 100 ng/ml LPS for two hours in the presence and absence of BMS-205820 (2 uM) using the Fast Track isolation kit (Invitrogen, Carlsbad, Calif.) according to manufacturer's instructions. RNA quality and quantity were evaluated using UV spectrometry and capillary electrophoresis with the RNA 6000 Assay 10 (Agilent). First-strand cDNA was synthesized using the SuperScript™ First-Strand Synthesis System for RT-PCR (Invitrogen) according to manufacturer's instructions.
PCR reactions were performed in a total volume of 40 ul containing master mix (SYBR Green I dye, 50 mM Tris-Cl pH 8.3, 75 mM KCl, DMSO, Rox reference dye, 5 mM MgCl2, 2 mM dNTP, 1 unit Platinum Taq High Fidelity enzyme), 0.5 uM 15 each of forward and reverse gene-specific primers, and cDNA (8 ul of a 1:36 dilution of the first strand reaction mix). For tissue expression analyses, PCR reactions included 2 ul of cDNA derived from the Human Multiple Tissue cDNA panel I and Human Immune System MTC Panel (Clontech, Palo Alto, Calif.). The amplification program consisted of a 10 minute incubation at 95° C., followed by 40 cycles of incubations at 95° C. for 15 seconds, 60° C. for 1 minute. The amplification was followed by melting curve analysis at 60° C. to determine the specificity of the amplification reaction. The data were analyzed using the TaqMan 5700 software with the threshold value set to 0.5. The message levels of GAPDH were used to normalize the amounts of cDNA for each reaction.
PolyA+ mRNA was isolated from THP1 cells that were either unstimulated, stimulated with LPS for 2 hours, or stimulated with LPS for 2 hours in the presence of the peptide BMS-205820 (2 μM). In some experiments, THP-1 cells were stimulated with LPS in the presence of the glucocorticoid dexamethasone (100 nM), and the IKK-2 inhibitor, BMS-345541 (10 μM). RNA quality and quantity were evaluated using UV spectrometry and capillary electrophoresis with the RNA 6000 Assay by Agilent. Five-hundred nanograms of polyA RNA was used for first-strand cDNA synthesis using the SuperScript™ First-Strand Synthesis System for RT-PCR (Life Technologies) following the manufacturer's instructions with 250 ng of random hexamers.
PCR Reactions were performed in a total volume of 40 μl. The master mix contained SYBR Green I Dye, 50 mM Tris-HCl pH8.3, 75 mM KCl, DMSO, Rox reference dye, 5 mM MgCl2, 2 mM dNTP, Platinum Taq High Fidelity (1U/reaction), and 0.5 μM of each primer. The cDNA was diluted 1:36 from the synthesis reaction and eight microliters was used in each PCR reaction. For tissue distribution analyses, two microliters of cDNA from the Human Multiple Tissue and Human Immune System MTC cDNA panels were used as templates. The amplification program consisted of a 10 minute incubation at 95° C. followed by forty cycles of incubations at 95° C. for 15 seconds and 60° C. for 1 minute. […] A negative control without cDNA template was run to assess the overall specificity.
A relative value for the initial target concentration in each reaction was determined using the TaqMan 5700 software. The threshold value was set to 0.5 to obtain cycle threshold values that were used to assign relative message levels for each target. The message levels of GAPDH were determined for each cDNA sample and were used to normalize all other genes tested from the same cDNA sample.

[1] = THP-1 cells stimulated with LPS

SMILES	MGC20791 expression (mRNA) [1]	Cytokine-Inducible Kinase (CNK) expression (mRNA) (THP-1 cells stimulated with LPS, all time points, FIG. 5A)	BCL-2 Like 11 expression (mRNA) (THP-1 cells stimulated with LPS, each time point, FIG. 5B)	BCL-6 expression (mRNA) [1]	Stat1 expression (mRNA) (THP-1 cells, 8 hours post LPS stimulation, FIG. 5E)
Cc1ccc2nc(NCCN)c3ncc(C)n3c2c1 [BMS-345541]	significantly inhibited	potently inhibited	significantly inhibited expression at each time point below that detected in resting cells	significantly inhibited	significantly inhibited
C[C@@H]1C[C@H]2[C@@H]3CCC4=CC(=O)C=C[C@]4(C)[C@@]3(F)[C@@H](O)C[C@]2(C)[C@@]1(O)C(=O)CO [dexamethasone]	failed to inhibit			failed to inhibit	
